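GI50 marks 50% less growth. TGI: concentration producing complete growth inhibition.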
What was measured:
Assay in all cases: DTP human tumour cell line panel, 384-well format
[1] = test system: 786-0 renal
[2] = test system: A498 renal
[3] = test system: A549 NSCLC
[4] = test system: ACHN renal
[5] = test system: BT-549 breast
[6] = test system: CAKI-1 renal
[7] = test system: COLO 205 colon
[8] = test system: DU-145 prostate
[9] = test system: EKVX NSCLC
[10] = test system: HCC-2998 colon
[11] = test system: HCT-116 colon
[12] = test system: HCT-15 colon
[13] = test system: HL-60(TB) leukemia
[14] = test system: HOP-62 NSCLC
[15] = test system: HOP-92 NSCLC
[16] = test system: HS 578T breast
[17] = test system: HT29 colon
[18] = test system: IGROV1 ovarian
[19] = test system: K-562 leukemia
[20] = test system: KM12 colon
[21] = test system: LOX IMVI melanoma
[22] = test system: M14 melanoma
[23] = test system: MALME-3M melanoma
[24] = test system: MCF7 breast
[25] = test system: MDA-MB-231 breast
[26] = test system: MDA-MB-435 melanoma
[27] = test system: MDA-MB-468 breast
[28] = test system: MOLT-4 leukemia
[29] = test system: NCI-H226 lung

SMILES: O=C(c1ccc(/C=C/c2n[nH]c3ccccc23)cc1)N1CCNCC1
- GI50 [1]: 10.7 µM
- TGI [1]: 22.7 µM
- GI50 [2]: 13.2 µM
- TGI [2]: 26 µM
- GI50 [3]: 1.96 µM
- TGI [3]: 19.9 µM
- GI50 [4]: 4.29 µM
- TGI [4]: 18.3 µM
- GI50 [5]: 0.597 µM
- TGI [5]: 2.29 µM
- GI50 [6]: 3.37 µM
- TGI [6]: 16.4 µM
- GI50 [7]: 0.635 µM
- TGI [7]: 3.89 µM
- GI50 [8]: 5.22 µM
- TGI [8]: 20.7 µM
- GI50 [9]: 3.23 µM
- TGI [9]: 14.7 µM
- GI50 [10]: 11 µM
- TGI [10]: 27.4 µM
- GI50 [11]: 1.77 µM
- TGI [11]: 18.6 µM
- GI50 [12]: 3.41 µM
- TGI [12]: 18.9 µM
- GI50 [13]: 0.416 µM
- TGI [13]: 15 µM
- GI50 [14]: 2.32 µM
- TGI [14]: 16.5 µM
- GI50 [15]: 2.32 µM
- TGI [15]: 11 µM
- GI50 [16]: 2.47 µM
- TGI [16]: 7.17 µM
- GI50 [17]: 3.1 µM
- TGI [17]: 14.6 µM
- GI50 [18]: 4.66 µM
- TGI [18]: 18.2 µM
- GI50 [19]: 0.214 µM
- TGI [19]: 1.08 µM
- GI50 [20]: 0.118 µM
- TGI [20]: 10.8 µM
- GI50 [21]: 2.99 µM
- TGI [21]: 10.8 µM
- GI50 [22]: 4.3 µM
- TGI [22]: 17 µM
- GI50 [23]: 2.7 µM
- TGI [23]: 10.8 µM
- GI50 [24]: 2.9 µM
- TGI [24]: 16.3 µM
- GI50 [25]: 3.41 µM
- TGI [25]: 17.9 µM
- GI50 [26]: 2.01 µM
- TGI [26]: 13.3 µM
- GI50 [27]: 1.07 µM
- TGI [27]: 16.6 µM
- GI50 [28]: 0.252 µM
- TGI [28]: 1.27 µM
- GI50 [29]: 1.32 µM
- TGI [29]: 4.89 µM
